Measured values taken from patent US20220220135A1 (BAR-ILAN UNIVERSITY, priority 2019, published 2022).
Where “and” joins values, the source holds several entries; their conditions need not be identical. Equal values may be shown once.

Key:
NTPDase1 = biological target: T1, NTPDase1 (Homo sapiens, UniProt P49961); experiment: Stability to hydrolysis by human NTPDase1; assay type: in vitro ADME; settings: analogue 100 μM; activity with 100 μM ATP = 100%
T1 sequence (P49961 1-510): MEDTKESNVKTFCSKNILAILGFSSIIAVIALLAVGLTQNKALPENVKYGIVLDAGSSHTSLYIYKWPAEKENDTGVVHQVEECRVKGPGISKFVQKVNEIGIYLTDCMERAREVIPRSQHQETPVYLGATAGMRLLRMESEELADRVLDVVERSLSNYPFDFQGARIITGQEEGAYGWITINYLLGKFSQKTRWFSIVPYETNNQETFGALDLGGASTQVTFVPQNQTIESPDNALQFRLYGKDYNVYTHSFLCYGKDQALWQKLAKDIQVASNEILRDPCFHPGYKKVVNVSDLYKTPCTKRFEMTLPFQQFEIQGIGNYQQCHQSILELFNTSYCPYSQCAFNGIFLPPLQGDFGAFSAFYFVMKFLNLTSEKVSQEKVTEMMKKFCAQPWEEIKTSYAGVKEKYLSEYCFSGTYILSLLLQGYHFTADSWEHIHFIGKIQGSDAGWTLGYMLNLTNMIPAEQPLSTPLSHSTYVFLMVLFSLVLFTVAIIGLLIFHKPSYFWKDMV
Description: (§1) Uridine 5′-Pα,α-phosphorodithioate analogues, 9-12, were tested for their stability to degradation by NPP1 and NTPDases. These enzymes are involved in the metabolism of extracellular nucleotides. Analogues 9-12 were not hydrolyzed by hNPP1 (Table 2). […] Analogue 10 was hydrolyzed by hNTPDase1, -2 and -3 at 30-39% the rate of ATP and was slightly hydrolyzed by human NTPDase8 at 16% the rate of ATP.
(§2) Analogues 9-12 were incubated in the presence of the indicated ectonucleotidase at a concentration of 100 μM. The activity with 100 μM ATP was set as 100%, which was 329±108, 302±34, 263±51, 195±76 nmol of Pi·min−1·mg of protein−1 for NTPDase1, -2, -3 and -8, respectively, and 34±7 nmol for NPP1. Data presented are the mean±SEM of results from two experiments.

NTPDase8 = biological target: T2, NTPDase8 (Homo sapiens, UniProt Q5MY95); experiment: Stability to hydrolysis by human NTPDase8; assay type: in vitro ADME; settings: analogue 100 μM; activity with 100 μM ATP = 100%
T2 sequence (Q5MY95 1-495): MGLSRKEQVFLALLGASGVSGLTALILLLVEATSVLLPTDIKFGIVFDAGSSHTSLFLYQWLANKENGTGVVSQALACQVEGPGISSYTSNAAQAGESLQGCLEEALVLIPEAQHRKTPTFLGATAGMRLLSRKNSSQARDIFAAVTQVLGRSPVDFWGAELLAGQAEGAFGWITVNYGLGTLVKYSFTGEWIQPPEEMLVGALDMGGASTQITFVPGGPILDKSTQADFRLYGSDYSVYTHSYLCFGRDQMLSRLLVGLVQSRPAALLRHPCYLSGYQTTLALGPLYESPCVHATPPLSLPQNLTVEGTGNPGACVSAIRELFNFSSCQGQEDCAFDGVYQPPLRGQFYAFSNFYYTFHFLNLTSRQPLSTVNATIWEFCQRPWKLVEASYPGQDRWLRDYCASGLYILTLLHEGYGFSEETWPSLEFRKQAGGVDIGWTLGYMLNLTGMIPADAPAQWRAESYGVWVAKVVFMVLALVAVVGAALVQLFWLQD
Description: as §1, §2

NTPDase3 = biological target: T3, NTPDase3 (Homo sapiens, UniProt O75355); experiment: Stability to hydrolysis by human NTPDase3; assay type: in vitro ADME; settings: analogue 100 μM; activity with 100 μM ATP = 100%
T3 sequence (O75355 1-529): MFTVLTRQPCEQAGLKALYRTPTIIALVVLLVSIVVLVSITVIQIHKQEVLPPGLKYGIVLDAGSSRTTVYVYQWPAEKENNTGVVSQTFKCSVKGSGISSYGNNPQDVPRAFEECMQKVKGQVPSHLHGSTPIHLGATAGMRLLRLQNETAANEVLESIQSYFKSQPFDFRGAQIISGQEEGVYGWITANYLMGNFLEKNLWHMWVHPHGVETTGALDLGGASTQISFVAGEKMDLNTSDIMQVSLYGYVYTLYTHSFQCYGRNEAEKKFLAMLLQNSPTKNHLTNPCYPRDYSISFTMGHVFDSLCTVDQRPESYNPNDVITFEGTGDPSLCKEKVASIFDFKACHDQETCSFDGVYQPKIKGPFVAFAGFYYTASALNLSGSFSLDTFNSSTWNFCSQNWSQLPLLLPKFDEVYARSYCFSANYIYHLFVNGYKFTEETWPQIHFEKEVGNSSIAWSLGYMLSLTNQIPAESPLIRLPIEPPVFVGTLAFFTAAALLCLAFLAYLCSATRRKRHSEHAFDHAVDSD
Description: as §1, §2

human P2Y1R = biological target: T4, human P2Y1R (Homo sapiens, UniProt P47900); experiment: Calcium mobilization in 1321N1 astrocytoma cells expressing human P2Y1R; assay type: cell-based
T4 construct: expressed in transfected cells; host or cells: 1321N1 astrocytoma cells
T4 sequence (P47900 whole entry): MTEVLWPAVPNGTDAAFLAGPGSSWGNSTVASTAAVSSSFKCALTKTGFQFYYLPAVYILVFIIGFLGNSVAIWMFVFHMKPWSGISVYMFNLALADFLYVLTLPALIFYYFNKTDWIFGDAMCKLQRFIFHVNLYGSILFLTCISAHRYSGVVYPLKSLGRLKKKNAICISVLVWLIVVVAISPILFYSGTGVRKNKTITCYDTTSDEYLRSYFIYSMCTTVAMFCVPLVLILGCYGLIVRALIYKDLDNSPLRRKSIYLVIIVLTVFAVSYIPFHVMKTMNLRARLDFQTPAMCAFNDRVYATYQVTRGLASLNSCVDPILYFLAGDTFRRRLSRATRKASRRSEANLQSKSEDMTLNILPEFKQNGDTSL
Description: (§3) Given the structural resemblance of 106-109 to the natural ligands of P2Y receptors, adenine and uracil nucleotides as natural substrates, were assessed for agonist potency on the human P2Y1, P2Y2, P2Y4, and P2Y6 receptor. To evaluate NPP1 selectivity of analogs 106-109, they were tested for their ability to activate of the uridine-nucleotide sensitive human recombinant P2Y1,2,4,6-receptors. The agonist potencies of this series of nucleotide analogues on the Gq protein-coupled human P2Y1R, P2Y2R, P2Y4R, and P2Y6R was determined by assessing its ability to induce calcium mobilization in stably transfected 1321N1 astrocytoma cells (Table 8). The nucleotide analogues were found in calcium mobilization assays to activate the P2Y2R with mid-micromolar potency.

human P2Y2R = biological target: T5, human P2Y2R (Homo sapiens, UniProt P41231); experiment: Calcium mobilization in 1321N1 astrocytoma cells expressing human P2Y2R; assay type: cell-based
T5 construct: expressed in transfected cells; host or cells: 1321N1 astrocytoma cells
T5 sequence (P41231 whole entry): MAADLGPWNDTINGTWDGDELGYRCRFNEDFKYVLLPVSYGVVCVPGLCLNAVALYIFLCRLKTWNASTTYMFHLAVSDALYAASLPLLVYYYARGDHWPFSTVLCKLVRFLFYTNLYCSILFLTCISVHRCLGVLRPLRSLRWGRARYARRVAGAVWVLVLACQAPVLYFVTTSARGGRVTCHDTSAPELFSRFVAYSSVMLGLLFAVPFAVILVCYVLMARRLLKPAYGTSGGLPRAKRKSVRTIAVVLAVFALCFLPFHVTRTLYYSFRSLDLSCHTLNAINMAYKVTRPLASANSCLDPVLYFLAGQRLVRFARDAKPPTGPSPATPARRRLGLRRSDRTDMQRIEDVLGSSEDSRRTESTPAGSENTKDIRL
Description: as §3

human CD39 = biological target: T6, human CD39 (Homo sapiens, UniProt P49961); experiment: Inhibition of human CD39, 0.5 μM PSB-170621A as substrate; assay type: biochemical; settings: 0.5 μM PSB-170621A as a substrate; n = 3
T6 sequence (P49961 1-510): T1 sequence (P49961 1-510)

SMILES | Relative activity (%) ± SEM of ATP hydrolysis, NTPDase1 (NTPDase1) [%] | Relative activity (%) ± SEM of ATP hydrolysis, NTPDase8 (NTPDase8) | Relative activity (%) ± SEM of ATP hydrolysis, NTPDase3 (NTPDase3) [%] | % activation at 10 μM, P2Y1 (human P2Y1R) [%] | % activation at 10 μM, P2Y2 (human P2Y2R) [%] | % inhibition ± SEM, human CD39 (human CD39) [%]
O=c1ccn([C@@H]2O[C@H](COP(=S)(S)OP(=O)(O)OP(=O)(O)O)[C@@H](O)[C@H]2O)c(=O)[nH]1 (stereo partly drawn) [Analogue 10] | 30.8 ± 3.2 | 16% and 16.5 ± 2.8% | 39.7 ± 1.9 |  |  | 
Nc1ncnc2c1ncn2COCCOP(=S)(S)OP(=O)(O)O (stereo not drawn) [compound 106] |  |  |  | 2 ± 2 | 32 ± 18 | 14 ± 1
